Consider two molecules from PMC2483479 (Acta Crystallographica Section D: Biological Crystallography, 2007).

One data set deals with T1, E. coli KAS I (Escherichia coli, UniProt P0A953).
T1 sequence (P0A953 1-406): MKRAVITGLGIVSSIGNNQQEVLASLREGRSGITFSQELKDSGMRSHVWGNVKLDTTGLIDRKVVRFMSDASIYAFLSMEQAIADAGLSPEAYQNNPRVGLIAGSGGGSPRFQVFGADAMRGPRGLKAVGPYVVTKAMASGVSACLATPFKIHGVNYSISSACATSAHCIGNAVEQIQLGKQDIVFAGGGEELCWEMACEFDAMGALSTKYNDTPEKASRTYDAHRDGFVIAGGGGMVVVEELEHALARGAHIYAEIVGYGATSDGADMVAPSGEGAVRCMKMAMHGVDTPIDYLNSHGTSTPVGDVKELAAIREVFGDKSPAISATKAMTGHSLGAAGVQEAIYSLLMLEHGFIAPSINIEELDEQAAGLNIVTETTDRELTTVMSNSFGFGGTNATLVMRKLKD
The experiment in a line: X-ray crystal structure. The format is binding. To be noted: 0.3 mM thiolactomycin, 2.3 M ammonium sulfate, 0.1 M Tris-HCl pH 7.5, 3% DMSO; active site.

The data set “crystal structure” concerns the molecule itself. Kind of data set: crystal structure.

As for `C=C/C(C)=C/[C@@]1(C)SC(=O)C(C)=C1O` [thiolactomycin], the “X-ray crystal structure (crystal soaking)” value on E. coli KAS I was “clearly confirmed binding of thiolactomycin at the active site”.

B1: Escherichia coli β-ketoacyl-ACP synthase I (KAS I) (enzyme)
chain: T1 sequence (P0A953 1-406)
Turning to B1, in “crystal structure”, the binding result is listed as “binds”.
